Measurements: BindingDB's records for patent US20240010658 (Ono Pharmaceutical Co., 2024)

Target: T1, Monoacylglycerol lipase ABHD6 [33-337] (Homo sapiens, UniProt Q9BV23)
T1 construct: 33-337
T1 sequence (Q9BV23 whole entry): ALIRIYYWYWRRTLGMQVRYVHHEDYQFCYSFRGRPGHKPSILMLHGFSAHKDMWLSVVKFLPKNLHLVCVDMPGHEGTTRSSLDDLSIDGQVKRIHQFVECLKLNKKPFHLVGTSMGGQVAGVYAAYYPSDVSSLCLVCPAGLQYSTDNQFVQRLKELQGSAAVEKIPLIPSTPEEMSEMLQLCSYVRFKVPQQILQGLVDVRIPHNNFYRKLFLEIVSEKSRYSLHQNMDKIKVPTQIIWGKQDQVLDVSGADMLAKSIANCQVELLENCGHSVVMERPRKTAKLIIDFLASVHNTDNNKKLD
Assay: Evaluation of ABHD6 Enzyme Inhibitory Activity Assay
Description: The enzyme reaction was carried out at room temperature using a 384-well microplate made of polypropylene, and wells to which no enzyme was added were designated as a blank group. One hour after the start of the enzyme reaction, methanol containing, as an internal standard substance, arachidonic acid-d8 (Cayman Chemical) and 1% formic acid was added to stop enzymatic reaction. The upper part of the enzyme reaction plate was sealed with aluminum, and centrifugation was performed at 560 g for 5 minutes at room temperature. Then, arachidonic acid as an enzyme reaction product and arachidonic acid-ds as the internal standard substance were quantified with RapidFire (registered trademark)-Mass Spectrometry system.

IC50: in the range around 2 nM
Compound: CN(C)c1ncc(C(=O)N2C[C@@H]3CC[C@@H](Nc4ccc(Br)nn4)[C@@H]3C2)s1 [US20240010658, Example 2-6]
